Laboratory results taken from the NIST ThermoML archive (doi:10.1021/je050085p).

Experiments:
[1] = excess molar enthalpy (molar enthalpy of mixing); xn = mol fraction of the nth substance listed; conditions: 308.15 K, 101 kPa, Liquid, Flow calorimetry
[2] = refractive index (Na D-line) (dimensionless); xn = mol fraction of the nth substance listed; conditions: 308.15 K, 101 kPa, Liquid, Standard Abbe refractometry
[3] = xn = mol fraction of the nth substance listed; conditions: 308.15 K, 101 kPa, Liquid
[4] = 101.33 kPa, Liquid
[5] = refractive index (Na D-line) (dimensionless); conditions: 101.33 kPa, Liquid, Standard Abbe refractometry

CCOc1ccccc1 [ethoxybenzene] + OCc1ccccc1
Conditions | excess molar enthalpy [kcal/mol] | mass density [kg/m3] | refractive index
[1], x1 = 0.0328 | 0.0247 | – | –
[1], x1 = 0.0636 | 0.0454 | – | –
[1], x1 = 0.0924 | 0.0677 | – | –
[1], x1 = 0.1195 | 0.0854 | – | –
[1], x1 = 0.1691 | 0.118 | – | –
[1], x1 = 0.2135 | 0.147 | – | –
[1], x1 = 0.2893 | 0.177 | – | –
[1], x1 = 0.3517 | 0.205 | – | –
[1], x1 = 0.4488 | 0.232 | – | –
[1], x1 = 0.5499 | 0.252 | – | –
[1], x1 = 0.6196 | 0.262 | – | –
[1], x1 = 0.7095 | 0.266 | – | –
[1], x1 = 0.7651 | 0.259 | – | –
[1], x1 = 0.8301 | 0.232 | – | –
[1], x1 = 0.8669 | 0.209 | – | –
[1], x1 = 0.907 | 0.169 | – | –
[1], x1 = 0.9513 | 0.104 | – | –
[2], x1 = 0.0642 | – | – | 1.5322
[2], x1 = 0.0826 | – | – | 1.5313
[2], x1 = 0.1663 | – | – | 1.5279
[2], x1 = 0.1751 | – | – | 1.5275
[2], x1 = 0.2585 | – | – | 1.5244
[2], x1 = 0.3363 | – | – | 1.5216
[2], x1 = 0.4598 | – | – | 1.5172
[2], x1 = 0.544 | – | – | 1.5142
[2], x1 = 0.6369 | – | – | 1.5111
[2], x1 = 0.7572 | – | – | 1.5071
[2], x1 = 0.8621 | – | – | 1.5039
[2], x1 = 0.9361 | – | – | 1.5018
[3], x1 = 0.0642 | – | 1027.61 | –
[3], x1 = 0.0826 | – | 1025.86 | –
[3], x1 = 0.1663 | – | 1018.18 | –
[3], x1 = 0.1751 | – | 1017.38 | –
[3], x1 = 0.2585 | – | 1009.89 | –
[3], x1 = 0.3363 | – | 1003.06 | –
[3], x1 = 0.4598 | – | 992.51 | –
[3], x1 = 0.544 | – | 985.53 | –
[3], x1 = 0.6369 | – | 978.04 | –
[3], x1 = 0.7572 | – | 968.65 | –
[3], x1 = 0.8621 | – | 960.77 | –
[3], x1 = 0.9361 | – | 955.37 | –

COc1ccccc1 [anisole]
Conditions | mass density, [4] [kg/m3] | refractive index, [5]
298.15 K | 989.3 | 1.5153
308.15 K | 979.71 | 1.5095
